Experimental data from patent US12653814B2, “Benzimidazolone-based cinnamamide derivative as TRPV1 antagonist and pharmaceutical composition for treatment or prevention of pain containing same as active ingredient” (JMACKEM CO., LTD, priority 2020, dated 2026).

Assays:
[1] = even in the absence of partial agonism; cited from earlier work
[2] = during clinical trials; cited from earlier work
[3] = molecular target: T1, human TRPV1 (hTRPV1) (Homo sapiens, UniProt Q8NER1); test: Ca2+ influx assay, antagonism against capsaicin in hTRPV1-HEK recombinant cells; format: cell-based; details: capsaicin 10 nM as activator, Fluo4-NW fluorescence, read-out: hTRPV1 IC50 [cap]
T1 construct: host or cells: HEK (PrecisION hTRPV1-HEK recombinant cell line)
T1 sequence (Q8NER1 whole entry): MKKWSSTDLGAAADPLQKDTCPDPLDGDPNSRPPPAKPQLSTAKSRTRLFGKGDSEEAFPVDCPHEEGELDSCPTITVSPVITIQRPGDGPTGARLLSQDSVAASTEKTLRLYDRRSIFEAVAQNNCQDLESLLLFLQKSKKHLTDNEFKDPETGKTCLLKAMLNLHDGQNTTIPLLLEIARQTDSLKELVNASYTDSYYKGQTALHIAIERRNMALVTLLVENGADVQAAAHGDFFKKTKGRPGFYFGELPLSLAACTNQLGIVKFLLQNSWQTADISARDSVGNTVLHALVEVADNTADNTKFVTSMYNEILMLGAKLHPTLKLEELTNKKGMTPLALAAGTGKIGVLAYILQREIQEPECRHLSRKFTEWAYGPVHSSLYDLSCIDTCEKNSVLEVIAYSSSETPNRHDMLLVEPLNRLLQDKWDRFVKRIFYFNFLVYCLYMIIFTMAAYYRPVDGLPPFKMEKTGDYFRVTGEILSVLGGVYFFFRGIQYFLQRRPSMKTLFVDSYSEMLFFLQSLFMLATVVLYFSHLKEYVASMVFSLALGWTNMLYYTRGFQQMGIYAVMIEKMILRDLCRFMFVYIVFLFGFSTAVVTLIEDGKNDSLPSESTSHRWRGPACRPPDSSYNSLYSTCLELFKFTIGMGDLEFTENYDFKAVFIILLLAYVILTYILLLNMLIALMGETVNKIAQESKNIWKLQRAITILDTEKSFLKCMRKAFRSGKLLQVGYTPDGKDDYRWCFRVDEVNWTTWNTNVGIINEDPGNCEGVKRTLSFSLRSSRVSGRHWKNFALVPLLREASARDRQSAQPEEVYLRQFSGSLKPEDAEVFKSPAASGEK

[4] = Evaluation of bioavailability (BA), rat PK after intravenous and oral administration; format: in vivo, SD rats; details: male, SD, plasma, 10 mg/kg, read-out: Bioavailability F (%)
Procedure: SD rats (Coatec, Hana Trading Co., Ltd., 7-8 weeks old, male, n=4, 250-300 g) were used for the experiment. The rats were bred in a small animal breeding room (experimental animal center) set at a temperature of 22±2° C., a relative humidity of 50±5%, an illumination time of 12 hours (08:00˜20:00), and an illumination intensity of 150 to 300 lux. Feed was fed freely during the entire test period, and RO water was provided freely. Before oral administration of the test substances (example compounds and comparative example compounds of the present invention), the rats were fasted for 16 hours.
The dosage of the example compounds and comparative example compounds of the present invention was 5 mg/kg when administered intravenously and 10 mg/kg when administered orally. For intravenous administration, a clear solution in which 10% DMSO, 10% Cremophor EL, and 80% PEG400 were dissolved was administered. For oral administration, a solution or suspension in which 10% DMSO and 10% Cremophor EL were dissolved in 80% DDW was administered.
After the intravenous or oral administration, blood was collected at 5 minutes, 15 minutes, 30 minutes, 1 hour, 2 hours, 4 hours, 6 hours and 8 hours, and the concentrations of the test substances (example compounds and comparative example compounds of the present invention) in plasma were measured by LC-MS/MS.
After adding 80 μl of acetonitrile (including internal standard) to 20 μl of plasma, centrifugation was performed for 5 minutes at 15,000 rpm at 4° C. with vortexing. The supernatant obtained after the centrifugation was analyzed by LC-MS/MS. For HPLC, Nexera XR system (Shimadzu, Japan) was used, and for mass spectrometer, TSQ vantage triple quadruple (Thermo, USA) was used.
The PK parameters were calculated with a non-compartmental analysis model using Phoenix WinNonlin 6.4 version (Pharsight, USA) program.
AUC was calculated using the linear trapezoidal rule in the rising plasma-level phase and the logarithmic trapezoidal rule in the declining phase.

[5] = molecular target: T1, human TRPV1 (hTRPV1); test: Evaluation of human pH inhibitory activity in hTRPV1-HEK recombinant cells; format: cell-based; details: inhibition of activation at final pH 6.0, test substance 3 μM
Procedure: Evaluation of Human pH Inhibitory Activity
PrecisION™ hTRPV1-HEK recombinant cells (CYL3063) were purchased from Millipore and used. After culturing the above cells under the conditions of 37° C. and 5% CO2, the cells were inoculated in a 96-well plate at the density of 5×10^4 cells/well, followed by culture for 16 hours. Then, the medium was removed and 100 uL of a staining solution was put into each well, followed by culture for 30 minutes under the conditions of 37° C. and 5% CO2. After 30 minutes, all of the existing staining solution was removed and replaced with 100 uL of HBSS. Thereafter, the cells were acclimatized to room temperature for 15 minutes, and the test substances (example compounds and comparative example compounds of the present invention) were added to each well, followed by culture at room temperature for 15 minutes. Then, the final pH was adjusted to 6.0 using MES, and fluorescence was measured (ex485/em535). In the pH assay, the efficacy of the drug was evaluated using BCTC as a TRPV1 antagonist.

Compound | IC50 [3] [nM] | bioavailability [4] [%] | hTRPV1 pH (%, 3 μM) [5] [%] | effect on body temperature [1] | subject's body temperature rose to [2] [°C]
FC(F)(F)c1ccc(-c2cc(Nc3ccc4ncsc4c3)ncn2)c(NCC2CCCCC2)c1 [AMG7905] |  |  |  | cause hypothermia | 
O=C(/C=C/c1ccc(C(F)(F)F)cc1N1CCCCC1)Nc1cccc2c1C[C@H](O)C2 [AMG8562] |  |  |  | cause hypothermia | 
CC(=O)Nc1nc2c(Oc3cc(-c4ccc(C(F)(F)F)cc4)ncn3)cccc2s1 [AMG 517] |  |  |  |  | 40.2
O=C(NCc1ccc(C(F)(F)F)nc1N1CCCC1)Nc1cccc2[nH]c(=O)[nH]c12 [Comparative Example 1, 1-(2-oxo-1,3-dihydrobenzimidazol-4-yl)-3-[[2-pyrrolidin-1-yl-6-(trifluoromethyl)-3-pyridyl]methyl]urea, reference compound] | 18.4 | 2.3 |  |  | 
CC(C)Oc1nc(C(F)(F)F)ccc1CNC(=O)Nc1cccc2[nH]c(=O)[nH]c12 [Comparative Example 2, 1-[[2-isopropoxy-6-(trifluoromethyl)-3-pyridyl]methyl]-3-(2-oxo-1,3-dihydrobenzimidazol-4-yl)urea, reference compound] | 23.4 | 1 |  |  | 
O=C(NCc1ccc(C(F)(F)F)nc1N1CCCCC1)Nc1cccc2[nH]c(=O)[nH]c12 [Comparative Example 3, 1-(2-oxo-1,3-dihydrobenzimidazol-4-yl)-3-[[2-(1-piperidyl)-6-(trifluoromethyl)-3-pyridyl]methyl]urea, reference compound] | 13.5 | 3 |  |  | 
CC(C)COc1nc(C(F)(F)F)ccc1/C=C/C(=O)Nc1cccc2[nH]c(=O)[nH]c12 [Example 10, (E)-3-(2-isobutoxy-6-(trifluoromethyl)pyridin-3-yl)-N-(2-oxo-2,3-dihydro-1H-benzo[d]imidazol-4-yl)acrylamide] | 13 | 25.9 | 53.26 |  | 
CC(C)COc1nc(C(F)(F)F)ccc1CCC(=O)Nc1cccc2[nH]c(=O)[nH]c12 [Example 59, 3-(2-isobutoxy-6-(trifluoromethyl)pyridin-3-yl)-N-(2-oxo-2,3-dihydro-1H-benzo[d]imidazol-4-yl)propaneamide] | 40.7 |  | 59.32 |  | 

Continued, in another order:

IC50 [3] [nM] | bioavailability [4] [%] | hTRPV1 pH (%, 3 μM) [5] [%] | Compound | effect on body temperature [1] | subject's body temperature rose to [2] [°C]
15.7 | 13.2 | 52.56 | O=C(/C=C/c1ccc(C(F)(F)F)nc1N1CCCC1)Nc1cccc2[nH]c(=O)[nH]c12 [Example 3, (E)-N-(2-oxo-2,3-dihydro-1H-benzo[d]imidazol-4-yl)-3-(2-(pyrrolidin-1-yl)-6-(trifluoromethyl)pyridin-3-yl)acrylamide] |  | 
11.3 | 12.5 | 49.86 | O=C(/C=C/c1ccc(C(F)(F)F)nc1N1CCCCC1)Nc1cccc2[nH]c(=O)[nH]c12 [Example 4, (E)-N-(2-oxo-2,3-dihydro-1H-benzo[d]imidazol-4-yl)-3-(2-(piperidin-1-yl)-6-(trifluoromethyl)pyridin-3-yl)acrylamide] |  | 
13.7 | 35.6 | 30.67 | O=C(/C=C/c1ccc(C(F)(F)F)nc1OCC1CC1)Nc1cccc2[nH]c(=O)[nH]c12 [Example 13, (E)-3-(2-(cyclopropylmethoxy)-6-(trifluoromethyl)pyridin-3-yl)-N-(2-oxo-2,3-dihydro-1H-benzo[d]imidazol-4-yl)acrylamide] |  | 
19.9 |  | 21.37 | O=C(/C=C/c1cc(C(F)(F)F)nn1-c1ccc(F)c(Cl)c1)Nc1cccc2[nH]c(=O)[nH]c12 [Example 49, (E)-3-(1-(3-chloro-4-fluorophenyl)-3-(trifluoromethyl)-1H-pyrazol-5-yl)-N-(2-oxo-2,3-dihydro-1H-benzo[d]imidazol-4-yl)acrylamide] |  | 
41.3 |  | 34.22 | CC(C)c1cccc(-n2nc(C(F)(F)F)cc2/C=C/C(=O)Nc2cccc3[nH]c(=O)[nH]c23)c1 [Example 50, (E)-3-(1-(3-isopropylphenyl)-3-(trifluoromethyl)-1H-pyrazol-5-yl)-N-(2-oxo-2,3-dihydro-1H-benzo[d]imidazol-4-yl)acrylamide] |  | 
79.8 |  | 78.21 | CC(C)(C)c1cc(/C=C/C(=O)Nc2cccc3[nH]c(=O)[nH]c23)n(-c2cccc(Cl)c2)n1 [Example 53, (E)-3-(3-(tert-butyl)-1-(3-chlorophenyl)-1H-pyrazol-5-yl)-N-(2-oxo-2,3-dihydro-1H-benzo[d]imidazol-4-yl)acrylamide] |  | 
55.7 |  | 63.44 | O=C(/C=C/c1sc(C(F)(F)F)nc1-c1cccc(Cl)c1)Nc1cccc2[nH]c(=O)[nH]c12 [Example 54, (E)-3-(4-(3-chlorophenyl)-2-(trifluoromethyl)thiazol-5-yl)-N-(2-oxo-2,3-dihydro-1H-benzo[d]imidazol-4-yl)acrylamide] |  | 
26 |  | 68.23 | O=C(/C=C/c1sc(C2CC2)nc1-c1cccc(Cl)c1)Nc1cccc2[nH]c(=O)[nH]c12 [Example 56, (E)-3-(4-(3-chlorophenyl)-2-cyclopropylthiazol-5-yl)-N-(2-oxo-2,3-dihydro-1H-benzo[d]imidazol-4-yl)acrylamide] |  | 
39.8 |  | 61.78 | CC1(c2nc(-c3cccc(Cl)c3)c(/C=C/C(=O)Nc3cccc4[nH]c(=O)[nH]c34)s2)CC1 [Example 57, (E)-3-(4-(3-chlorophenyl)-2-(1-methylcyclopropyl)thiazol-5-yl)-N-(2-oxo-2,3-dihydro-1H-benzo[d]imidazol-4-yl)acrylamide] |  | 
23.7 |  | 67.19 | O=C(CCc1ccc(C(F)(F)F)nc1OCC1CC1)Nc1cccc2[nH]c(=O)[nH]c12 [Example 60, 3-(2-(cyclopropylmethoxy)-6-(trifluoromethyl)pyridin-3-yl)-N-(2-oxo-2,3-dihydro-1H-benzo[d]imidazol-4-yl)propaneamide] |  | 
10.3 |  | 0.53 | O=C(Nc1cccc2[nH]c(=O)[nH]c12)C1CC1c1cc(C(F)(F)F)nn1-c1cccc(Cl)c1 (stereo not drawn) [Example 63, 2-(1-(3-chlorophenyl)-3-(trifluoromethyl)-1H-pyrazol-5-yl)-N-(2-oxo-2,3-dihydro-1H-benzo[d]imidazol-4-yl)cyclopropane-1-carboxamide] |  | 
